Data from ChEMBL document CHEMBL3885881, “DrugMatrix”.

Organism: Rattus norvegicus
Experiment: DrugMatrix - Regimen: Daily Repeat
Format: toxicity, organism-based, Sprague-Dawley
Design: regimen Daily Repeat, gender Male, age 6-8 weeks
Conditions: in vivo, po, route oral GAVAGE, […]; for BASOPHIL / EOSINOPHIL / ERYTHROCYTE COUNT / HEMATOCRIT / HEMOGLOBIN / LEUKOCYTE COUNT / LYMPHOCYTE / MEAN CORPUSCULAR HEMOGLOBIN / MEAN CORPUSCULAR HEMOGLOBIN CONCENTRATION / MEAN CORPUSCULAR VOLUME / MONOCYTE / NEUTROPHIL / PLATELET COUNT: tissue Blood; for ALANINE AMINOTRANSFERASE / ALBUMIN / ALKALINE PHOSPHATASE / ASPARTATE AMINOTRANSFERASE / BLOOD UREA NITROGEN / CARBON DIOXIDE / CHLORIDE / CHOLESTEROL / CREATINE PHOSPHOKINASE / CREATININE / GLUCOSE / LACTATE DEHYDROGENASE / LIPASE / PHOSPHORUS / POTASSIUM / SODIUM / TOTAL BILIRUBIN / TOTAL PROTEIN / URIC ACID: tissue Plasma
[1] = 100 mg/kg, 72 h, dose level Low, time 3 day
[2] = 100 mg/kg, 120 h, dose level Low, time 5 day
[3] = 1200 mg/kg, 72 h, dose level High, time 3 day
[4] = 1200 mg/kg, 120 h, dose level High, time 5 day

Cc1c(C)c2c(c(C)c1O)CCC(C)(COc1ccc(CC3SC(=O)NC3=O)cc1)O2 (stereo not drawn) [TROGLITAZONE]
BASOPHIL [1]: 0%
EOSINOPHIL [1]: 1%
ERYTHROCYTE COUNT [1]: 6.97 x10E6/uL
HEMATOCRIT [1]: 42.83%
HEMOGLOBIN [1]: 14.33 G/DL
LEUKOCYTE COUNT [1]: 7.7 x10E3/uL
LYMPHOCYTE [1]: 77.67%
MEAN CORPUSCULAR HEMOGLOBIN [1]: 20.57 pg
MEAN CORPUSCULAR HEMOGLOBIN CONCENTRATION [1]: 33.5 G/DL
MEAN CORPUSCULAR VOLUME [1]: 61.4 fL
MONOCYTE [1]: 3%
NEUTROPHIL [1]: 18.33%
PLATELET COUNT [1]: 1143 x10E3/uL
ALANINE AMINOTRANSFERASE [1]: 57.67 u/L
ALBUMIN [1]: 4.33 G/DL
ALKALINE PHOSPHATASE [1]: 396.67 u/L
ASPARTATE AMINOTRANSFERASE [1]: 112.67 u/L
BLOOD UREA NITROGEN [1]: 14.67 mg/dL
CARBON DIOXIDE [1]: 24.67 mmol/L
CHLORIDE [1]: 103.33 MEQ/L
CHOLESTEROL [1]: 74.67 mg/dL
CREATINE PHOSPHOKINASE [1]: 585.67 u/L
CREATININE [1]: 0.3 mg/dL
GLUCOSE [1]: 141 mg/dL
LACTATE DEHYDROGENASE [1]: 938.33 u/L
LIPASE [1]: 10 u/L
PHOSPHORUS [1]: 8.83 mg/dL
POTASSIUM [1]: 5.6 MEQ/L
SODIUM [1]: 144.33 MEQ/L
TOTAL BILIRUBIN [1]: 0.1 mg/dL
TOTAL PROTEIN [1]: 5.83 G/DL
URIC ACID [1]: 1.2 mg/dL
BASOPHIL [2]: 0.33%
EOSINOPHIL [2]: 0.67%
ERYTHROCYTE COUNT [2]: 7.13 x10E6/uL
HEMATOCRIT [2]: 43.8%
HEMOGLOBIN [2]: 14.4 G/DL
LEUKOCYTE COUNT [2]: 13.53 x10E3/uL
LYMPHOCYTE [2]: 82.33%
MEAN CORPUSCULAR HEMOGLOBIN [2]: 20.2 pg
MEAN CORPUSCULAR HEMOGLOBIN CONCENTRATION [2]: 32.87 G/DL
MEAN CORPUSCULAR VOLUME [2]: 61.5 fL
MONOCYTE [2]: 1.67%
NEUTROPHIL [2]: 15.67%
PLATELET COUNT [2]: 873.33 x10E3/uL
ALANINE AMINOTRANSFERASE [2]: 66.67 u/L
ALBUMIN [2]: 4.27 G/DL
ALKALINE PHOSPHATASE [2]: 446.67 u/L
ASPARTATE AMINOTRANSFERASE [2]: 84.33 u/L
BLOOD UREA NITROGEN [2]: 15 mg/dL
CARBON DIOXIDE [2]: 23.67 mmol/L
CHLORIDE [2]: 99.67 MEQ/L
CHOLESTEROL [2]: 63.67 mg/dL
CREATINE PHOSPHOKINASE [2]: 419.67 u/L
CREATININE [2]: 0.3 mg/dL
GLUCOSE [2]: 149 mg/dL
LACTATE DEHYDROGENASE [2]: 313.33 u/L
LIPASE [2]: 9.33 u/L
PHOSPHORUS [2]: 9.73 mg/dL
POTASSIUM [2]: 5.57 MEQ/L
SODIUM [2]: 139.67 MEQ/L
TOTAL BILIRUBIN [2]: 0.0667 mg/dL
TOTAL PROTEIN [2]: 5.8 G/DL
URIC ACID [2]: 0.87 mg/dL
BASOPHIL [3]: 0%
EOSINOPHIL [3]: 1%
ERYTHROCYTE COUNT [3]: 7.21 x10E6/uL
HEMATOCRIT [3]: 43.6%
HEMOGLOBIN [3]: 14.63 G/DL
LEUKOCYTE COUNT [3]: 6.47 x10E3/uL
LYMPHOCYTE [3]: 79.33%
MEAN CORPUSCULAR HEMOGLOBIN [3]: 20.33 pg
MEAN CORPUSCULAR HEMOGLOBIN CONCENTRATION [3]: 33.6 G/DL
MEAN CORPUSCULAR VOLUME [3]: 60.5 fL
MONOCYTE [3]: 2.67%
NEUTROPHIL [3]: 16.67%
PLATELET COUNT [3]: 1107 x10E3/uL
ALANINE AMINOTRANSFERASE [3]: 85.33 u/L
ALBUMIN [3]: 4.53 G/DL
ALKALINE PHOSPHATASE [3]: 481.33 u/L
ASPARTATE AMINOTRANSFERASE [3]: 92.33 u/L
BLOOD UREA NITROGEN [3]: 14.67 mg/dL
CARBON DIOXIDE [3]: 23 mmol/L
CHLORIDE [3]: 104 MEQ/L
CHOLESTEROL [3]: 65.33 mg/dL
CREATINE PHOSPHOKINASE [3]: 471 u/L
CREATININE [3]: 0.3 mg/dL
GLUCOSE [3]: 140.33 mg/dL
LACTATE DEHYDROGENASE [3]: 332.33 u/L
LIPASE [3]: 9.33 u/L
PHOSPHORUS [3]: 8.43 mg/dL
POTASSIUM [3]: 5.33 MEQ/L
SODIUM [3]: 146 MEQ/L
TOTAL BILIRUBIN [3]: 0.1 mg/dL
TOTAL PROTEIN [3]: 6 G/DL
URIC ACID [3]: 0.97 mg/dL
BASOPHIL [4]: 0%
EOSINOPHIL [4]: 1%
ERYTHROCYTE COUNT [4]: 6.94 x10E6/uL
HEMATOCRIT [4]: 42.1%
HEMOGLOBIN [4]: 13.63 G/DL
LEUKOCYTE COUNT [4]: 9.2 x10E3/uL
LYMPHOCYTE [4]: 81%
MEAN CORPUSCULAR HEMOGLOBIN [4]: 19.63 pg
MEAN CORPUSCULAR HEMOGLOBIN CONCENTRATION [4]: 32.4 G/DL
MEAN CORPUSCULAR VOLUME [4]: 60.63 fL
MONOCYTE [4]: 2.33%
NEUTROPHIL [4]: 16%
PLATELET COUNT [4]: 801.33 x10E3/uL
ALANINE AMINOTRANSFERASE [4]: 58 u/L
ALBUMIN [4]: 4.3 G/DL
ALKALINE PHOSPHATASE [4]: 406.67 u/L
ASPARTATE AMINOTRANSFERASE [4]: 77.33 u/L
BLOOD UREA NITROGEN [4]: 16 mg/dL
CARBON DIOXIDE [4]: 25 mmol/L
CHLORIDE [4]: 99.33 MEQ/L
CHOLESTEROL [4]: 64.33 mg/dL
CREATINE PHOSPHOKINASE [4]: 451.67 u/L
CREATININE [4]: 0.3 mg/dL
GLUCOSE [4]: 149 mg/dL
LACTATE DEHYDROGENASE [4]: 118.67 u/L
LIPASE [4]: 8.67 u/L
PHOSPHORUS [4]: 9.07 mg/dL
POTASSIUM [4]: 5.67 MEQ/L
SODIUM [4]: 138 MEQ/L
TOTAL BILIRUBIN [4]: 0.1 mg/dL
TOTAL PROTEIN [4]: 5.77 G/DL
URIC ACID [4]: 1.1 mg/dL
